Experimental data reported in ChEMBL document CHEMBL1201862, “PubChem BioAssay data set” (2004).
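Values below derive from 48-hour exposures of cells grown in 96-well plates, with endpoints linearly interpolated between the two concentrations bracketing the appropriate inhibition level. Here, GI50 denotes the concentration required for 50% inhibition of growth.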 The source made the active and inactive calls. Cut-off read from the data, not from the text of the source: active = GI50 up to about 1.1 µM and inactive = higher.

Key:
Assay in all cases: growth of human tumour cells (NCI), 48 h
[1] = test system: 786-0
[2] = test system: A498
[3] = test system: A549
[4] = test system: ACHN
[5] = test system: BT-549
[6] = test system: CAKI-1
[7] = test system: CCRF-CEM
[8] = test system: COLO 205
[9] = test system: DU-145
[10] = test system: EKVX
[11] = test system: HCC 2998
[12] = test system: HCT-116
[13] = test system: HCT-15
[14] = test system: HL-60
[15] = test system: HOP-62
[16] = test system: HOP-92
[17] = test system: HT-29
[18] = test system: Hs-578T
[19] = test system: IGROV-1
[20] = test system: K562
[21] = test system: KM12
[22] = test system: M14
[23] = test system: MCF7
[24] = test system: MDA-MB-231
[25] = test system: MDA-MB-435
[26] = test system: MDA-N
[27] = test system: MOLT-4
[28] = test system: Malme-3M
[29] = test system: NCI-H226
[30] = test system: NCI-H23
[31] = test system: NCI-H460
[32] = test system: NCI-H522
[33] = test system: NCI/ADR-RES
[34] = test system: OVCAR-3
[35] = test system: OVCAR-4
[36] = test system: OVCAR-5
[37] = test system: OVCAR-8
[38] = test system: PC-3
[39] = test system: RPMI-8226
[40] = test system: RXF 393
[41] = test system: SF-268
[42] = test system: SF-295
[43] = test system: SF-539
[44] = test system: SK-MEL-28
[45] = test system: SK-MEL-2
[46] = test system: SK-MEL-5
[47] = test system: SK-OV-3
[48] = test system: SN12C
[49] = test system: SNB-19
[50] = test system: SNB-75
[51] = test system: SR
[52] = test system: SW-620
[53] = test system: T47D
[54] = test system: TK-10
[55] = test system: U-251
[56] = test system: UACC-257
[57] = test system: UACC-62
[58] = test system: UO-31
[59] = test system: LOX IMVI

Measured: GI50

COc1ccc(N2CCOCC2)cc1
> 100 µM: [13]
inactive: [1] > 100 µM | [2] > 100 µM | [3] > 100 µM | [4] > 100 µM | [5] > 100 µM | [6] > 100 µM | [7] > 100 µM | [8] > 100 µM | [9] > 100 µM | [10] > 100 µM | [11] > 100 µM | [12] > 100 µM | [14] > 100 µM | [15] > 100 µM | [16] > 100 µM | [17] > 100 µM | [18] > 100 µM | [19] > 100 µM | [20] > 100 µM | [21] > 100 µM | [22] > 100 µM | [23] > 100 µM | [24] > 100 µM | [25] > 100 µM | [26] > 100 µM | [27] > 100 µM | [28] > 100 µM | [29] > 100 µM | [30] > 100 µM | [31] > 100 µM | [32] > 100 µM | [33] > 100 µM | [34] > 100 µM | [35] > 100 µM | [36] > 100 µM | [37] > 100 µM | [38] > 100 µM | [39] > 100 µM | [40] > 100 µM | [41] > 100 µM | [42] > 100 µM | [43] > 100 µM | [44] > 100 µM | [45] > 100 µM | [46] > 100 µM | [47] > 100 µM | [48] > 100 µM | [49] > 100 µM | [50] > 100 µM | [51] > 100 µM | [52] > 100 µM | [53] > 100 µM | [54] > 100 µM | [55] > 100 µM | [56] > 100 µM | [57] > 100 µM | [58] > 100 µM

CC(C)(C)N1C(=O)c2ccccc2C1(O)C(F)(F)F (stereo unspecified)
> 100 µM: [13]
inactive: [1] > 100 µM | [2] > 100 µM | [3] > 100 µM | [4] > 100 µM | [5] > 100 µM | [6] > 100 µM | [7] > 100 µM | [8] > 100 µM | [9] > 100 µM | [10] 64 µM | [11] > 100 µM | [12] > 100 µM | [14] > 100 µM | [15] > 100 µM | [16] > 100 µM | [17] > 100 µM | [18] 24 µM | [19] 74 µM | [20] 20.5 µM | [21] > 100 µM | [59] > 100 µM | [22] > 100 µM | [23] > 100 µM | [24] > 100 µM | [25] > 100 µM | [26] 84.9 µM | [28] 38 µM | [29] > 100 µM | [30] > 100 µM | [31] > 100 µM | [32] 64.4 µM | [33] > 100 µM | [34] > 100 µM | [35] > 100 µM | [36] > 100 µM | [37] > 100 µM | [38] 60.1 µM | [39] 76.6 µM | [40] > 100 µM | [41] > 100 µM | [42] > 100 µM | [43] > 100 µM | [44] > 100 µM | [45] > 100 µM | [46] > 100 µM | [47] > 100 µM | [48] > 100 µM | [49] > 100 µM | [50] 24.4 µM | [51] > 100 µM | [52] > 100 µM | [53] 53.6 µM | [54] > 100 µM | [55] > 100 µM | [56] > 100 µM | [57] > 100 µM | [58] > 100 µM

O=c1cc(-c2ccc(O)c(O)c2)oc2cc(O[C@H]3O[C@H](CO)[C@@H](O)[C@H](O)[C@H]3O)cc(O)c12
inactive: [1] > 100 µM | [2] 78.2 µM | [3] 79.8 µM | [4] 65.5 µM | [5] > 100 µM | [6] 89.9 µM | [8] > 100 µM | [9] > 100 µM | [10] 56.6 µM | [11] > 100 µM | [12] 28.8 µM | [14] 37.7 µM | [15] > 100 µM | [16] > 100 µM | [17] 67.8 µM | [18] 29.3 µM | [19] > 100 µM | [21] 38 µM | [59] 35.6 µM | [22] > 100 µM | [23] > 100 µM | [24] > 100 µM | [25] > 100 µM | [26] > 100 µM | [27] 21.4 µM | [28] > 100 µM | [29] > 100 µM | [30] > 100 µM | [31] 34.8 µM | [32] 41.3 µM | [33] > 100 µM | [34] 81.7 µM | [35] > 100 µM | [36] > 100 µM | [37] > 100 µM | [38] 70.6 µM | [39] 73.5 µM | [40] > 100 µM | [41] 62.1 µM | [42] > 100 µM | [43] > 100 µM | [44] 59.3 µM | [45] 99.8 µM | [46] 70.1 µM | [47] > 100 µM | [48] > 100 µM | [49] 75.9 µM | [50] 20.2 µM | [51] 5.69 µM | [52] > 100 µM | [53] 89.1 µM | [54] > 100 µM | [55] > 100 µM | [56] > 100 µM | [57] 93.1 µM | [58] 11.2 µM
41.5 µM: [13]

CCOC(=O)C#Cc1ccc([N+](=O)[O-])cc1
active: [7] 1.1 µM | [36] 1 µM
inactive: [1] 1.55 µM | [2] 17.5 µM | [3] 10.4 µM | [4] 3.21 µM | [5] 2.18 µM | [6] 1.87 µM | [8] 1.72 µM | [9] 1.74 µM | [10] 3.15 µM | [11] 14.8 µM | [12] 1.66 µM | [14] 1.73 µM | [15] 3.24 µM | [16] 1.8 µM | [17] 1.53 µM | [18] 4.18 µM | [19] 1.96 µM | [20] 2.07 µM | [21] 1.82 µM | [59] 1.34 µM | [22] 2.15 µM | [23] 1.24 µM | [24] 2.28 µM | [25] 3.44 µM | [26] 3.19 µM | [27] 1.73 µM | [29] 2.68 µM | [30] 2.59 µM | [31] 12.4 µM | [32] 1.49 µM | [33] 4.18 µM | [34] 1.71 µM | [35] 11.2 µM | [37] 2.37 µM | [38] 2.72 µM | [39] 1.98 µM | [40] 1.28 µM | [41] 2.52 µM | [42] 12.9 µM | [43] 2.06 µM | [44] 5.52 µM | [45] 3.24 µM | [46] 2.67 µM | [47] 12.7 µM | [48] 1.69 µM | [49] 13 µM | [50] 2.24 µM | [51] 1.77 µM | [52] 2.28 µM | [53] 2.01 µM | [54] 14.3 µM | [55] 1.64 µM | [56] 3.32 µM | [57] 1.98 µM | [58] 1.77 µM
1.82 µM: [13]
